Experimental data published in PMC6835155, “Lessons from LIMK1 enzymology and their impact on inhibitor design” (Biochemical Journal, 2019).
Structures can show the parent of a compound that is named as a salt. Where two headings read alike, the source gives them in different places.

What was measured:
LIMK1KD = molecular target: T1, LIMK1KD (Homo sapiens, UniProt P53667); assay: Differential (dynamic) scanning fluorimetry (DSF) assay, LIMK1KD; assay type: binding; conditions: 2 µM LIMK1KD, compound 10 µM, single shot; for ΔTm at 10 µM: read-out: TM Shift LIMK1 (K)
T1 construct: His6 (N, cleaved yes); made in house; host or cells: baculovirus; Sf9 for virus, TriEx insect cells for expression

LIMK2KD = molecular target: T2, LIMK2KD (Homo sapiens, UniProt P53671); assay: Differential (dynamic) scanning fluorimetry (DSF) assay, LIMK2KD; assay type: binding
T2 construct: The cDNA coding for LIMK2 residues 330 to 632 was PCR amplified; His6 (N, cleaved yes); made in house; host or cells: baculovirus; Sf9 for virus, TriEx insect cells for expression

[1] = LIMK2KD, compound 10 µM, single shot
[2] = LIMK2KD, compound 10 µM, single shot, read-out: TM Shift LIMK2 (K)
[3] = LIMK2KD, compound 10 µM, single shot, 10 µM

T2 sequence (P53671 330-632): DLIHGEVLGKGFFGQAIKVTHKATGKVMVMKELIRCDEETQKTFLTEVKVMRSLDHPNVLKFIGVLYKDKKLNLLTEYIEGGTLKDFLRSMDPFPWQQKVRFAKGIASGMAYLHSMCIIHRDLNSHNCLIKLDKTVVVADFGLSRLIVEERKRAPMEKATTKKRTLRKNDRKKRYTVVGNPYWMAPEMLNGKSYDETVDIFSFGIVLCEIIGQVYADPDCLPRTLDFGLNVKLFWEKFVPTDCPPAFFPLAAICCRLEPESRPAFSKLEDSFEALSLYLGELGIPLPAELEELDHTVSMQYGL
T1 sequence (P53667 330-637): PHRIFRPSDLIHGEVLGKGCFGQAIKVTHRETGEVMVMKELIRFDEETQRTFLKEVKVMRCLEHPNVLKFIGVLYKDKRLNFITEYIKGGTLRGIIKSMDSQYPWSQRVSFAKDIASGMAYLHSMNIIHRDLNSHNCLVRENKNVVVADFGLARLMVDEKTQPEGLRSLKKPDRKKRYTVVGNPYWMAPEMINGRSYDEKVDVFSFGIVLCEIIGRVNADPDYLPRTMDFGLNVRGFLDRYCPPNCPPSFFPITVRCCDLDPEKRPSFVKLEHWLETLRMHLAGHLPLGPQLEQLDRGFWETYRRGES

Row | SMILES | TM Shift LIMK1 (K) (LIMK1KD) | ΔTm at 10 µM (LIMK1KD) | ΔTm at 10 µM (LIMK2KD; [2]) | other results
1 | CNC(=O)c1c(F)cccc1Nc1nc(Nc2cc3c(cc2OC)CCN3C(=O)CN(C)C)nc2[nH]ccc12 [GSK1838705A] | 0.4 K |  |  | TM Shift LIMK2 (K) (LIMK2KD; [1]): 1.0 K
2 | CCc1cc(Nc2nccc(-c3c(-c4ccc(OC)c(C(=O)Nc5c(F)cccc5F)c4)nc4ccccn34)n2)c(OC)cc1N1CCC(N2CCN(S(C)(=O)=O)CC2)CC1 [GSK1904529A] | 0.8 K |  |  | TM Shift LIMK2 (K) (LIMK2KD; [1]): 0.7 K
3 | COc1ncc(-c2ccc3nccc(-c4ccnnc4)c3c2)cc1NS(=O)(=O)c1ccc(F)cc1F [GSK2126458 (GSK458)] | 1.2 K |  |  | TM Shift LIMK2 (K) (LIMK2KD; [1]): 0.9 K
4 | CNc1nc(-c2ccc3c(N)n[nH]c3c2)cc(N2C[C@@H](C(=O)NC3CCCCC3)CC[C@H]2C)n1 [GSK2334470] |  | 0.5 °C | 1.1 °C | 
5 | Cc1c(Cn2c(C)nc3c(C(=O)O)cc(N4CCOCC4)cc32)cccc1C(F)(F)F [GSK2636771] |  | 0.1 °C | 2 °C | 
6 | O=C1Nc2ccc(I)cc2/C1=C/c1cc(Br)c(O)c(Br)c1 [GW5074] | 0.0 K |  |  | TM Shift LIMK2 (K) (LIMK2KD; [1]): 5.6 K
7 | Cc1cccc(-c2nn3c(c2-c2ccnc4ccc(C(N)=O)cc24)CCC3)n1 [Galunisertib] |  | 0.3 °C | -0.5 °C | 
8 | Cc1cc(Nc2cc(CN3CCOCC3)c3nc(C)c(Cc4ccc(Cl)cc4F)n3n2)n[nH]1 [Gandotinib] | 5.4 K |  |  | TM Shift LIMK2 (K) (LIMK2KD; LIMK2KD, compound 10 µM, single shot, listed as gandotinib, 10 µM): −0.5 K
9 | COc1cc2ncnc(Nc3ccc(F)c(Cl)c3)c2cc1OCCCN1CCOCC1 [Gefitinib (ZD1839), Gefitinib] |  | -0.6 °C |  | ΔTm at 10 µM (LIMK2KD; read-out: TM Shift LIMK2 (K), LIMK2KD, compound 10 µM, single shot): 0.5 °C
10 | O=c1c(-c2ccc(O)cc2)coc2cc(O)cc(O)c12 [Genistein] |  | -0.3 °C | 4 °C | 
11 | COc1ccc2c(c1)c(C1=C(c3c[nH]c4ccccc34)C(=O)NC1=O)cn2CCCN(C)C [Go 6983] | 0.5 K |  |  | TM Shift LIMK2 (K) (LIMK2KD; [1]): 1.8 K
12 | CN1CCN(C2CCN(C(=O)Nc3cc(Oc4ccc(NC(=O)C5(C(=O)Nc6ccc(F)cc6)CC5)c(F)c4)ccn3)CC2)CC1 [Golvatinib (E7050), Golvatinib] |  | 3 °C | 1 °C | 
13 | Cl.Cl.O=S(=O)(NCCNC/C=C/c1ccc(Br)cc1)c1cccc2cnccc12 [H 89 2HCl] | 1.8 K |  |  | TM Shift LIMK2 (K) (LIMK2KD; [1]): 3.9 K
14 | Cc1cc(Nc2ncnc3ccc(-c4ccc(CNCCS(C)(=O)=O)o4)cc23)ccc1Oc1ccn2ncnc2c1 [HER2-Inhibitor-1] | 2.0 K |  |  | TM Shift LIMK2 (K) (LIMK2KD; [1]): 0.2 K
15 | COc1ccc(S(=O)(=O)N(C(C)=O)c2ccccc2/C=C/c2cc[n+]([O-])cc2)cc1 [HMN-214] |  | 2.5 °C | 1 °C | 
16 | CCS(=O)(=O)Nc1ccc2c(c1)/C(=C(/Nc1ccc(CN3CCCCC3)cc1)c1ccccc1)C(=O)N2 [Hesperadin] |  | 2.7 °C | 1.2 °C | 
17 | C=CCc1ccc(O)c(-c2ccc(O)c(CC=C)c2)c1 [Honokiol] |  | 0.9 °C | 1.7 °C | 
18 | O=C(c1ccc(Nc2nccc(-c3cc4ccccc4s3)n2)cc1)N1CCC(N2CCCC2)CC1 [IKK-16 (IKK Inhibitor VII)] | 7.0 K |  |  | TM Shift LIMK2 (K) (LIMK2KD; [1]): 2.1 K
19 | O=C(Nc1cc(C(F)(F)F)cc(C(F)(F)F)c1)c1cc(Cl)ccc1O [IMD 0354] |  | -0.6 °C | 1.4 °C | 
20 | CNC(=O)c1ccc(-c2cnc3ncc(Cc4ccc5ncccc5c4)n3n2)cc1F [INCB28060] |  | -0.2 °C | 0 °C | 
21 | CC(C)n1nc(-c2ccc3oc(N)nc3c2)c2c(N)ncnc21 [INK 128 (MLN0128)] |  | 1.4 °C | 0.3 °C | 
22 | Oc1ccc2ccccc2c1SSc1c(O)ccc2ccccc12 [IPA-3] | 0.0 K |  |  | TM Shift LIMK2 (K) (LIMK2KD; [1]): 1.2 K
23 | C[C@H](Nc1ncnc2nc[nH]c12)c1cc2cccc(Cl)c2c(=O)n1-c1ccccc1 [IPI-145 (INK1197)] |  | -1.5 °C | -0.6 °C | 
24 | C=CC(=O)N1CCC[C@@H](n2nc(-c3ccc(Oc4ccccc4)cc3)c3c(N)ncnc32)C1 [Ibrutinib (PCI-32765), Ibrutinib] |  | 2.4 °C | 0.7 °C | 

Row | SMILES | TM Shift LIMK1 (K) (LIMK1KD) | ΔTm at 10 µM (LIMK1KD) | ΔTm at 10 µM (LIMK2KD; [2]) | other results
25 | C#Cc1cccc(Nc2ncnc3cc4c(cc23)OCCOCCOCCO4)c1 [Icotinib] |  | -0.2 °C | -0.6 °C | 
26 | CC[C@H](Nc1ncnc2[nH]cnc12)c1nc2cccc(F)c2c(=O)n1-c1ccccc1 [Idelalisib] | 0.5 K |  |  | TM Shift LIMK1 (K) (LIMK1KD; listed as CAL-101 (Idelalisib, GS-1101)): -0.1 K; TM Shift LIMK2 (K) (LIMK2KD; [3]): -0.8 K; TM Shift LIMK2 (K) (LIMK2KD; LIMK2KD, compound 10 µM, single shot, listed as CAL-101 (Idelalisib, GS-1101), 10 µM): 1.8 K
27 | Cc1ccc(NC(=O)c2ccc(CN3CCN(C)CC3)cc2)cc1Nc1nccc(-c2cccnc2)n1 [Imatinib (STI571), Imatinib] | 0.8 K |  | 1 °C | 
28 | Cc1ccc(NC(=O)c2ccc(CN3CCN(C)CC3)cc2)cc1Nc1nccc(-c2cccnc2)n1 [Imatinib Mesylate (STI571), Imatinib Mesylate] | 0.0 K |  |  | TM Shift LIMK2 (K) (LIMK2KD; [3]): 0.8 K
29 | O=C1Nc2ccccc2/C1=C1/Nc2ccccc2C1=O [Indirubin] |  | 1.4 °C | 2.6 °C | 
30 | CC(C)NC[C@@H](C(=O)N1CCN(c2ncnc3c2[C@H](C)C[C@H]3O)CC1)c1ccc(Cl)cc1 [Ipatasertib] | 2.3 K |  |  | TM Shift LIMK2 (K) (LIMK2KD; [3]): 2.3 K
31 | Nc1nc(Nc2ccc(S(N)(=O)=O)cc2)nn1C(=O)c1c(F)cccc1F [JNJ-7706621] |  | 8.2 °C | 5.8 °C | 
32 | Cn1cc(-c2ccc3nnc(C(F)(F)c4ccc5ncccc5c4)n3n2)cn1 [JNJ-38877605] | -0.1 K |  |  | TM Shift LIMK2 (K) (LIMK2KD; [1]): -0.2 K
33 | CCCNC(=O)Nc1ccc(Oc2ncnc3cc(OC)c(OC)cc23)cc1Cl [KRN 633] |  | 1.9 °C | 1.4 °C | 
34 | O=c1cc(-c2cccc3c2Sc2ccccc2S3)oc(N2CCOCC2)c1 [KU-55933 (ATM Kinase Inhibitor)] |  | -0.2 °C | -0.1 °C | 
35 | C[C@@H]1CN(CC(=O)Nc2ccc3c(c2)Cc2cccc(-c4cc(=O)cc(N5CCOCC5)o4)c2S3)C[C@H](C)O1 [KU-60019] |  | 0.5 °C | 0.6 °C | 
36 | COc1ccc(-c2ccc3c(N4CCOCC4)nc(N4C[C@@H](C)O[C@@H](C)C4)nc3n2)cc1CO [KU-0063794] |  | 0.3 °C | 2 °C | 
37 | O=C(c1ccc(/C=C/c2n[nH]c3ccccc23)cc1)N1CCNCC1 [KW-2449] |  | 1.7 °C | 0.8 °C | 
38 | O=C(Cc1ccc(-c2ccc(OCCN3CCOCC3)cc2)cn1)NCc1ccccc1 [KX2-391] | 1.7 K |  |  | TM Shift LIMK2 (K) (LIMK2KD; [1]): -0.3 K
39 | COc1cc2nccc(Oc3ccc(NC(=O)Nc4ccc(F)cc4F)c(F)c3)c2cc1OC [Ki8751] | -0.1 K |  |  | TM Shift LIMK2 (K) (LIMK2KD; [1]): 1.5 K
40 | Cc1cc(Nc2ncc(Cl)c(Nc3ccccc3S(=O)(=O)C(C)C)n2)c(OC(C)C)cc1C1CCNCC1 [LDK378] |  | 0.2 °C | -0.3 °C | 
41 | O=c1cc(N2CCOCC2)oc2c(-c3ccccc3)cccc12 [LY294002] |  | 0 °C | 0.4 °C | 
42 | CC(C)(C)Cn1c(N)nc2ccc(-c3[nH]c(C(C)(C)C)nc3-c3ccc(F)cc3)nc21 [LY2228820] | 2.1 K |  |  | TM Shift LIMK2 (K) (LIMK2KD; [3]): 4.4 K
43 | Cc1cnc(NC(=O)Nc2cc(Br)c(C)cc2OC[C@@H]2CNCCO2)cn1 [LY2603618] | 0.1 K |  |  | TM Shift LIMK2 (K) (LIMK2KD; [3]): 0.7 K
44 | Cc1cc(Nc2cc(CN3CCOCC3)c3nc(C)c(Cc4ccc(Cl)cc4F)n3n2)n[nH]1 [LY2784544] |  | 5 °C |  | TM Shift LIMK2 (K) (LIMK2KD; [3]): 1.1 K
45 | CCN1CCN(Cc2ccc(Nc3ncc(F)c(-c4cc(F)c5nc(C)n(C(C)C)c5c4)n3)nc2)CC1 [LY2835219] |  | 0.9 °C | 0.3 °C | 
46 | C[C@@H](Oc1ccc2[nH]nc(/C=C/c3cnn(CCO)c3)c2c1)c1c(Cl)cncc1Cl [LY2874455] |  | 2.5 °C | 0.1 °C | 
47 | CS(=O)(=O)CCNCc1ccc(-c2ccc3ncnc(Nc4ccc(OCc5cccc(F)c5)c(Cl)c4)c3c2)o1 [Lapatinib (GW-572016) Ditosylate, Lapatinib] |  | 0.2 °C | 1.8 °C | 
